In US20120028837A1, “RAPID SCREEN FOR REPRODUCTIVE TOXICANTS” (PRESIDENT AND FELLOWS OF HARVARD COLLEGE, priority 2010, published 2012):
Structures can show the parent of a compound that is named as a salt. Marks after values point to notes of the source that are not given here.

What was measured:
C. elegans germline = experiment: Size of mitotic zone of the germline (DAPI, phospho-histone H3 staining)
Source text: In C. elegans, the germline is comprised of two main compartments, a mitotic region (the premeiotic tip), where nuclei are under the influence of the distal tip cell that maintains them in a proliferative state; and the meiotic region, where nuclei progress through the stages of Prophase I before being fertilized. The mitotic compartment of the worm gonad following BPA exposure was examined.
(§1) BPA bears endocrine disrupting activity in many developmental contexts including gonadal, brain and mammary gland development. BPA has affinity for multiple members of the estrogen receptors family, in particular BPA binds to the human estrogen receptor alpha (ERα) and ERβ as well as estrogen-related receptor gamma (ERR-γ) and in C. elegans with nuclear hormone receptor NHR-14 which also binds estrogen. […] Two hallmarks of exposure to BPA were examined, the decrease in the size of the proliferative zone and the condensation defects observed at diakinesis, as they are both highly penetrant and consistent phenotypes. […] Similarly to the experiments described above, the size of the mitotic zone was quantified as well as condensation defects at diakinesis.
Growing Conditions and Drug Exposures. Worms were cultured according to [23] at 20° C. on NGM plates without cholesterol. […] Exposure was carried from embryogenesis to adulthood by plating sodium hypochloride treated eggs onto drug and control plates and incubated at 20° C. for four days.
Antibody Staining. DAN staining, immunostaining and analysis of stained meiotic nuclei were performed as in [25] except for ATL-1 and AIR-2 antibodies were dissected gonads were subjected to a 1% fixation method as described in [27]. […] The secondary antibodies used were: Cy3 anti-rabbit, FITC anti-guinea-pig and FITC anti-mouse (Jackson Immunochemicals), each at 1:100, Stacks of 0.2 μm slices were captured using a Leica microscope, coupled to the DeltaVision fluorescence microscope system (Applied Precision). […]

xol-1::GFP worms = experiment: xol-1::GFP reporter assay for male (aneuploid) embryos; conditions: for male embryos in adult mid-ventral sections: 0.1 mg/ml in liquid culture, added 1 day post-L4 for 20 hours; for frequency of xol-1::GFP worms containing GFP+ eggs: 0.1 mg/ml, preliminary analysis
Protocol: In one embodiment of the invention, synchronized cultures of worms are grown for the desired developmental period (e.g., from eggs to adulthood, 4 days) on multiwell plates (e.g., 96-well plates) containing media mixed with the compound of interest at the concentration of interest (e.g., 1 μM and 100 μM). The concentrations can be adjusted if necessary to compensate for solubility differences. Following exposure, the worms are washed off the plate with a physiological buffer and then run through a high-throughput flow cytometry device (e.g., the COPAS Biosort). With this automated nematode analysis, sorting, and dispensing platform (Furlong et al., Nat Biotechnol. 2001; 19(2):153-6; Gill et al., Free Radic Biol Med. 2003; 35(6):558-65; Rea et al., Nat Genet. 2005; 37(8):894-8. PMCID: 1479894) one 96-well plate can be screened per hour. In one embodiment, test wells are alternated with mock wells to flush the equipment in order to avoid cross-contamination. […] The worm sorter not only directs the sorting of GFP positive worms from GFP negative ones but when coupled to the Profiler analysis software, also allows for the localization of the fluorescence within the worm. In one embodiment, scoring is for GFP positive eggs present in the animal's mid-ventral section (uterus), therefore, any worms showing mis-localized GFP expression will be discarded thus improving the accuracy of the screen. Positive controls used for the screen can include colchicine and nocodazole, both described as disruptors of spindle organization and therefore of chromosome segregation (Sato A, et al., Cell. 2009; 139(5):907-19; Stear et al., Mol Biol Cell. 2004; 15(11):5187-96. PMCID: 524797).
Worms are grown from eggs to adulthood (4 days) on 96-well plates containing media mixed with the compound of interest. Initially, two different concentrations are assayed, 1 μM and 100 μM, concentrations previously used in the context of other C. elegans toxicological screens (Boyd, McBride and Freedman, 2007; Boyd et al, 2009).
Following exposure, the worms are washed off the plate with buffer and run through a high-throughput flow cytometry device, commonly known as a “worm sorter” (COPAS-Biosort from Union Biometrica). The worm sorter not only directs the sorting of GFP positive worms from GFP negative ones but when coupled to the Profiler analysis software, also allows for the localization of the fluorescence within the worm. Scoring in the screen, is for GFP positive eggs present in the animal's mid-ventral section (uterus), therefore, any worms showing mis-localized GFP expression are discounted thus improving the accuracy of the screen.
The xol-1::GFP reporter strain was tested for meiotic disruption by addition of an external agent, by exposing the C. elegans to several cell cycle disruptors (microtubule disrupting agents) dissolved in DMSO, DMSO alone was used as a negative control. Each individual test agent was added to the liquid culture medium of the C. elegans at 1 day post-L4 (4 days of development) for a total of 20 hours. The C. elegans was then analyzed for the percentage of male embryos in the adult-midventral sections. Nocodazol was added to the medium at a final concentration of 0.1 mg/ml.
Adult xol-1::GFP worms were exposed to 100 μM nocodazole for 24 hours in liquid culture and the presence of GFP+ embryos in the uterus of exposed worms was monitored.
The effect of selected chemotherapeutic agents on the generation of aneuploidies was analyzed. xol-1::GFP adult worms were exposed to the compounds at a concentration of 100 μM for 24 hours in liquid culture in triplicates.
Each well contained 750 μl of M9, the drug at a final concentration of 100 μM, concentrated bacteria and young adults+eggs. The cultures were examined at 24 hours and 4 days.

[1] = tested on: C. elegans diakinesis oocytes; experiment: Diakinesis oocyte analysis (chromosome condensation, SYP-1, AIR-2, pH3); conditions: 1 mM E2; […] 4-HT
Source text: Proper processing of recombination events is coupled with the formation of mature bivalents during the diakinesis stage such that in mutants where recombination intermediate processing is impaired, bivalent maturation is delayed.
Associated with the changes in chromatin morphology, the SC is disassembled during late diakinesis in a tightly controlled fashion. Accordingly, SC components, such as SYP-1, are detectable on the short arms of the bivalent in the −3 oocyte but are essentially absent from the bivalents of −2 and −1 oocytes. Thus, whether a delay in chromosome remodeling could correlate with an incomplete disassembly of SC components in late diakinesis was examined.
Accurate chromosome segregation at meiosis I is characterized by the carefully orchestrated loss of cohesion between homologs coupled with retention of cohesion between sister chromatids. This regulated process involves the targeting of the Aurora-B kinase AIR-2, a member of the chromosomal passenger complex, to the short arm of the bivalents in the −1 oocyte which has been proposed to lead to the removal the meiosis-specific cohesin REC-8 from the short arms of the bivalent. To examine whether these key steps in late meiotic prophase I might be impaired in BPA treated gonads, the localization of AIR-2 in the −1 oocytes was examined. […] Phospho histone H3 (pH3) is a canonical substrate for the activity of AIR-2 [59] and accordingly, although it accumulates in the −3 to −1 oocytes, it is only detected on the short arms of the bivalent in the −1 oocyte in the presence of AIR-2 [56, 57].
as §1
Antibody Staining. DAN staining, immunostaining and analysis of stained meiotic nuclei were performed as in [25] except for ATL-1 and AIR-2 antibodies were dissected gonads were subjected to a 1% fixation method as described in [27]. Antibodies were used at the following dilutions: rabbit α-SYP-1 (1:100), mouse α-RAD-51 (1:100), rabbit α-HTP-3 (1:500), guinea pig α-HIM-8 (1:100), rabbit α-ATL-1 (1:50), rabbit α-AIR-2 (1:100) and rabbit α-pCHK-1 (1:100). The secondary antibodies used were: Cy3 anti-rabbit, FITC anti-guinea-pig and FITC anti-mouse (Jackson Immunochemicals), each at 1:100, Stacks of 0.2 μm slices were captured using a Leica microscope, coupled to the DeltaVision fluorescence microscope system (Applied Precision). The images were projections approximately halfway through 3D data stacks of whole nuclei, except for diakinesis images which encompass entire nuclei.

xol-1::LUC = experiment: xol-1::luciferase reporter induction; type: in vivo, C. elegans; conditions: 1 μM or 100 μM for 24 hours, preliminary experiment
[2] = xol-1::GFP, C. elegans, in vivo, 24 hours, 100 μM
[3] = average over the chemicals of the category, 100 μM, 24 hours, liquid culture, triplicates

Molecule: 4-hydroxy-tamoxifen [4-HT]
- pH3 positive nuclei in mitotic zone vs control (C. elegans germline; 4 days exposure, BPA 1 mM, 4-HT […]): two-fold decrease

Molecule: Oc1ncnc2[nH]ncc12 [Allopurinol]
- Average % of worms with 1 or more GFP embryos/category (xol-1::GFP worms; [2]): 0.6%

Molecule: C[C@]12CC[C@@H]3c4ccc(O)cc4CC[C@H]3[C@@H]1CC[C@@H]2O [E2, estradiol]
- increase in the number of nuclei comprising the mitotic region vs ethanol (C. elegans germline; 1 mM E2 for 4 days, DAPI staining): 13%
- bivalent maturation / condensation defects at diakinesis [1]: did not cause any observable bivalent maturation defects

Molecule: CC[C@@]1(O)C(=O)OCc2c1cc1n(c2=O)Cc2cc3c(CN(C)C)c(O)ccc3nc2-1 [Topotecan HCl]
- Average % of worms with 1 or more GFP embryos/category (xol-1::GFP worms; [2]): 3.77% *

Molecule: CC[C@]1(O)C[C@@H]2CN(CCc3c([nH]c4ccccc34)[C@@](C(=O)OC)(c3cc4c(cc3OC)N(C)[C@H]3[C@@](O)(C(=O)OC)[C@H](OC(C)=O)[C@]5(CC)C=CCN6CC[C@]43[C@@H]65)C2)C1 [Vinblastine]
- Average % of worms with 1 or more GFP embryos/category (xol-1::GFP worms; [2]): 23.3% *

Molecule: CC[C@]1(O)C[C@H]2CN(CCc3c([nH]c4ccccc34)[C@@](C(=O)OC)(c3cc4c(cc3OC)N(C=O)[C@H]3[C@@](O)(C(=O)OC)[C@H](OC(C)=O)[C@]5(CC)C=CCN6CC[C@]43[C@@H]65)C2)C1 [Vincristine sulfate]
- Average % of worms with 1 or more GFP embryos/category (xol-1::GFP worms; [3]): 23.3% *

Molecule: CN[C@H]1CCc2cc(OC)c(OC)c(OC)c2-c2ccc(OC)c(=O)cc21 [demecolcine]
- male embryos in adult mid-ventral sections (xol-1::GFP worms): 2.7%
- frequency of xol-1::GFP worms containing GFP+ eggs (xol-1::GFP worms): 3/66

Molecule: COC(=O)Nc1nc2ccc(C(=O)c3cccs3)cc2[nH]1 [nocodazole]
- male embryos in adult mid-ventral sections (xol-1::GFP worms): 37%
- frequency of xol-1::GFP worms containing GFP+ eggs (xol-1::GFP worms): 6/16
- worms with at least one GFP+ embryo (xol-1::GFP worms; adult worms, 100 μM, 24 hours, liquid culture): 55%
- Average % of worms with 1 or more GFP embryos/category (xol-1::GFP worms; [3]): 23.3% *
- induction of luciferase compared to DMSO (xol-1::LUC): significant induction

Molecule: Triethylene melamine
- Average % of worms with 1 or more GFP embryos/category (xol-1::GFP worms; [3]): 3.77% *
